Measured values: patent publication US12589085B2, “Use of diaminoguanidine derivative and feed composition thereof in preparation of veterinary drug” (priority 2019, dated 2026)
Like-named read-outs stand apart in the source and are kept apart here.

Columns and labels:
[1] = test system: bone marrow cells of mice; conditions: cyclophosphamide 40 mg/kg intraperitoneal, n = 5
Method: Experimental animals: 60 clean and healthy ICR mice have the average weight of 18-20 g, half female and half male, purchased from the Comparative Medicine Center of Yangzhou University. […]
Specimen preparation: 6 hours after the second administration of the test article, […] and 5 […] in each group were sacrificed by cervical dislocation. […] The fixed smear is stained with Giemsa application solution for 15-30 min, rinsed with distilled water, dried, and gets ready for inspection.
The film was read by double-blind method, the number of polychromatic red blood cells (PCE) of each mouse was recorded in each group, including the number of micronucleus PCE cells, and the number of mature red blood cells (RBC), and the like. The number of polychromatic red blood cells (PCE) was calculated, including the number of micronucleus PCE cells and the number of mature red blood cells (RBC) in each test group of male and female mice respectively, and the results were listed.
The experimental data is processed by SPSS 11.0 statistical software, and the analysis result is expressed as x±SD, and the incidence of micronucleus is statistically processed according to the X^2 test (α=0.05).

[2] = test system: sperm; conditions: cyclophosphamide 40 mg/kg once a day 5 days
Method: Experimental animals: 60 clean-grade healthy male ICR mice having the average weight of 18-20 g, purchased from the Comparative Medicine Center of Yangzhou University.
Reagents: Test agent, Compound 2, provided by Guangzhou Insighter Biotechnology Co., Ltd., was prepared into a suspension of the required concentration with 1.0% sodium carboxymethyl cellulose before use; the mutagenic positive control article of cyclophosphamide with the content of 99.00%; other reagents include sodium chloride, methanol, and eosin, all of analytical grade; self-prepared physiological saline; self-prepared eosin aqueous solution (2%).
The test article, Compound 2 was diluted with 1.0% sodium carboxymethyl cellulose as a solvent, and it was given by oral in different concentrations and the same volume. There is also a positive control and a negative (solvent) control. The cyclophosphamide was selected as the positive control (40 mg/kg).
Grouping of experimental animals: 60 healthy male mice were individually weighed, labeled and numbered, and they were divided into 5 groups with 12 mice in each group using a completely random method. It was ensured that 10 animals in each group survive for sampling and film making after administration.
Administration: The administration method is carried out according to GB15193.7-2003. The test group, the negative control and the positive control are all given the test article by oral once a day for 5 consecutive days. The weight of the mouse for each administration was weighed, and the volume of the test article that each mouse should administer was calculated according to the requirements of the mouse 0.2 mL/10 g b.w.
Sampling and sample preparation: The mice were sacrificed by cervical dislocation on the Day 35 after the first administration, and sampling and film making were performed. 10 mice were sampled in each dose group. The abdominal cavity was cut, the epididymis on both sides were separated and extracted, and put in a petri dish containing 2 mL of normal saline; The mice were longitudinally cut with ophthalmological scissors for 2 times, the normal saline in it was pipetted with a straw for several times, and let stand for 3 min; the tissue fragments were filtered with a 4-layer of lens cleaning paper, 1 drop of the filtrate was drawn onto the glass slide, the slide was pushed with 4 slides per mouse; the slide in the air dried naturally, and fixed with methanol for 10 minutes, and dried; stained with 2% eosin for 1 h, the dye solution was gently washed off with water, and it was dried naturally before microscopic examination.
Data collation and analysis: The number of normal sperm, the number of abnormal sperm and the number of various types of abnormal sperm were read and counted in each dose group of mice. The sperm abnormality rate (%) of mice in each dose group and the percentage (%) of various types of abnormal sperm were calculated, and the standard deviation of the sperm abnormality rate of mice was also calculated in each dose group. Calculation as follows:
The sperm abnormality rate of mice in each dose group was statistically compared with the sperm abnormality rate of mice in the negative (solvent) control. The experimental data was processed by SPSS 11.0 statistical software, and the analysis results were expressed as x±SD, and the incidence of sperm abnormalities was statistically processed according to the X^2 (α=0.05).
If the dose of the test group has caused the animal to die, while the sperm abnormality has not increased, the result can be judged to be negative.

SMILES: O=P1(N(CCCl)CCCl)NCCCO1 (stereo not drawn) [Positive control, cyclophosphamide, reference compound]
- PCE micronucleus rate ([1]; female mice): 15.00 ± 2.42 ‰
- PCE micronucleus rate ([1]; male mice): 15.20 ± 2.37 ‰
- Total number of abnormal sperm ([2]; Day 35, 10000 sperm): 559
- abnormal sperm: Amorphous ([2]; Day 35, 10000 sperm): 248
- abnormal sperm: Banana shape ([2]; Day 35, 10000 sperm): 91
- abnormal sperm: Double head ([2]; Day 35, 10000 sperm): 13
- abnormal sperm: Double tail ([2]; Day 35, 10000 sperm): 25
- abnormal sperm: Fat head ([2]; Day 35, 10000 sperm): 21
- abnormal sperm: Fold tail ([2]; Day 35, 10000 sperm): 12
- abnormal sperm: No hook ([2]; Day 35, 10000 sperm): 149
- Number of Abnormal sperm (x ± SD) ([2]; Day 35, n = 10): 55.90
- Sperm deformity ([2]; Day 35, n = 10): 5.26 ± 0.18%
